≈ marks a conversion by molar mass, not a printed value. Where two headings read alike, the source gives them in different places.
Legend:
[1] = test system: HeLa (HPV-18-positive); assay: Growth of HPV-positive HeLa cells, Coulter Counter cell count; type: cell-based, human; conditions: for IC50: Homo sapiens
[2] = test system: human papillomavirus (HPV)-positive cell lines; assay: Growth of human papillomavirus (HPV)-positive cell lines in presence of test compounds; type: cell-based
Procedure: See […] et at., Oncol Res. 10, 523-31 (1998) and J. A. Johnson et al., Antimicrob. Agents Chemother. 43, 1198-205 (1999). […] For these experiments, the cells were seeded in 96-well microtiter plates and after 24 hours of growth, serial dilutions of the test compounds were added. The cells were not fed after addition of the compounds. After three, five, seven and ten days, the cells were harvested by trypsinization and counted with a Coulter Counter. Duplicate wells were analyzed for each dilution and the results averaged.

[3] = test system: SiHa (HPV-16-positive); assay: Growth of HPV-positive SiHa cells, Coulter Counter cell count; type: cell-based, human; conditions: for IC50: Homo sapiens
[4] = test system: EiL8 (HPV-16-positive); assay: Growth of HPV-positive EiL8 cells, Coulter Counter cell count; type: cell-based, human; conditions: for IC50: Homo sapiens, read-out: IC50 (concentration required to reduce cell growth by 50%)
Procedure: (§1) The cells used in the first study included CK-1 (HPV-33-positive), EiL8 (HPV-16-positive), SiHa (HPV-16-positive) and HeLa (HPV-18-positive) and control primary human cervical keratinocytes (PHK). The cells were cultured in growth medium at 37° C., in 5% CO2. For these experiments, the cells were seeded in 96-well microtiter plates and after 24 hours of growth, serial dilutions of the test compounds were added. The cells were not fed after addition of the compounds. After three, five, seven and ten days, the cells were harvested by trypsinization and counted with a Coulter Counter. Duplicate wells were analyzed for each dilution and the results averaged. The number of cells recovered at each dilution was compared to the number of cells in untreated control wells and the concentration of test compound required to reduce cell growth by 50 percent (IC50) was determined.

[5] = test system: primary human cervical keratinocytes (PHK); assay: Growth of control primary human cervical keratinocytes, Coulter Counter cell count; type: cell-based; conditions: for IC50: Homo sapiens, Keratinocyte
[6] = test system: human foreskin fibroblast (HFF) cells; assay: Growth of human foreskin fibroblasts, neutral red uptake and counting of cells; type: cell-based
Procedure: as §1
(§2) The human foreskin fibroblast (HFF) cells were cultured in growth medium as described above, but assayed by neutral red uptake and counting of cells. The human embryonic lung fibroblast (HEL) cells were cultured in growth medium and assayed as described above by counting with a Coulter Counter. Daudi cells, an Epstein-Barr Virus (EBV)-positive Burkitt's lymphoma tumor cell line, were cultured in growth medium as described above and assayed by the neutral red uptake assay. […]

[7] = test system: CK-1 (HPV-33-positive); assay: cells; type: cell-based; conditions: for IC50: Homo sapiens, read-out: IC50 (concentration required to reduce cell growth by 50%)
[8] = test system: Daudi cells, an Epstein-Barr Virus (EBV)-positive Burkitt's lymphoma tumor cell line; assay: Growth of Daudi cells, neutral red uptake assay; type: cell-based, human
Procedure: as §1, §2

[9] = test system: human papillomavirus (HPV)-positive cell lines; conditions: literature (Andrei 1998; Johnson 1999); cited from earlier work
[10] = 72 h, Day 3, read-out: IC50 (concentration required to reduce cell growth by 50%)
[11] = 120 h, Day 5, read-out: IC50 (concentration required to reduce cell growth by 50%)
[12] = 168 h, Day 7, read-out: IC50 (concentration required to reduce cell growth by 50%)
[13] = 240 h, Day 10, read-out: IC50 (concentration required to reduce cell growth by 50%)

In the case of “2′,3′-cyclophosphateadenylyl(2′,5′)adenylyl-(2′,5′)adenosine [Cmpd. I]”, the “IC50 (concentration required to reduce cell growth by 50%)” value ([1]; Day 3) is reported as 66 µg/mL, the “IC50 (concentration required to reduce cell growth by 50%)” value ([1]; Day 5) is reported as 62 µg/mL and the “IC50 (concentration required to reduce cell growth by 50%)” value ([1]; Day 7) is reported as 90 µg/mL. The “IC50 (concentration required to reduce cell growth by 50%)” value ([1]; Day 10) was 160 µg/mL, the “growth inhibition / anti-proliferative activity (in words)” value [2] was “anti-proliferative activity” and the “IC50 (concentration required to reduce cell growth by 50%)” value ([3]; Day 3) was 150 µg/mL. For the same compound, the “IC50 (concentration required to reduce cell growth by 50%)” value ([3]; Day 5) was 108 µg/mL, the “IC50 (concentration required to reduce cell growth by 50%)” value ([3]; Day 7) was 141 µg/mL and the “IC50 (concentration required to reduce cell growth by 50%)” value ([3]; Day 10) was 193 µg/mL. For the same compound, the “IC50 (concentration required to reduce cell growth by 50%)” value ([4]; EiL8, Day 3) was 63 µg/mL, the “IC50 (concentration required to reduce cell growth by 50%)” value ([4]; EiL8, Day 5) was 68 µg/mL and the “IC50 (concentration required to reduce cell growth by 50%)” value ([4]; EiL8, Day 7) was 103 µg/mL. For the same compound, the “IC50 (concentration required to reduce cell growth by 50%)” value ([4]; EiL8, Day 10) was 180 µg/mL, the “IC50 (concentration required to reduce cell growth by 50%)” value ([5]; Day 3) was 110 µg/mL and the “IC50 (concentration required to reduce cell growth by 50%)” value ([5]; Day 5) was 168 µg/mL. For the same compound, the “IC50 (concentration required to reduce cell growth by 50%)” value ([5]; Day 7) was 262 µg/mL, the “IC50 (concentration required to reduce cell growth by 50%)” value ([5]; Day 10) was 280 µg/mL and the “inhibition of growth (in words)” value [6] was “inhibit the growth”. The “IC50 (concentration required to reduce cell growth by 50%)” value ([7]; CK-1, Day 3) was 100 µg/mL, the “IC50 (concentration required to reduce cell growth by 50%)” value ([7]; CK-1, Day 5) was 46 µg/mL and the “IC50 (concentration required to reduce cell growth by 50%)” value ([7]; CK-1, Day 7) was 104 µg/mL. The “IC50 (concentration required to reduce cell growth by 50%)” value ([7]; CK-1, Day 10) was 303 µg/mL and the “inhibition of growth (in words)” value [8] was “inhibit the growth”.

With `Nc1ccn(C[C@@H](CO)OCP(=O)(O)O)c(=O)n1` [HPMPC, 3-hydroxy-2-phosphonylmethoxy-propyl cytosine, reference compound] the IC50 [1, 10] was 37 µg/mL (≈ 133 µM), the IC50 [1, 11] was 5.6 µg/mL (≈ 20.1 µM) and the IC50 [1, 12] was 3.9 µg/mL (≈ 14 µM). It also gave an IC50 [1, 13] of 4.7 µg/mL (≈ 16.8 µM), an IC50 [3, 10] of 179 µg/mL (≈ 641 µM) and an IC50 [3, 11] of 8.6 µg/mL (≈ 30.8 µM). The IC50 [3, 12] was 4.7 µg/mL (≈ 16.8 µM), the IC50 [3, 13] was 4 µg/mL (≈ 14.3 µM) and the IC50 ([4]; 72 h, EiL8, Day 3) was 39 µg/mL (≈ 140 µM). The IC50 ([4]; 120 h, EiL8, Day 5) was 7.9 µg/mL (≈ 28.3 µM), the IC50 ([4]; 168 h, EiL8, Day 7) was 4.2 µg/mL (≈ 15 µM) and the IC50 ([4]; 240 h, EiL8, Day 10) was 3.5 µg/mL (≈ 12.5 µM). For the same compound, the IC50 [5, 10] was 9.9 µg/mL (≈ 35.5 µM), the IC50 [5, 11] was 7 µg/mL (≈ 25.1 µM) and the IC50 [5, 12] was 6.4 µg/mL (≈ 22.9 µM). For the same compound, the IC50 [5, 13] was 3.7 µg/mL (≈ 13.3 µM), the “inhibition of proliferation of HPV-transformed cells (in words)” value [9] was “inhibit the proliferation” and the IC50 ([7]; CK1, 72 h, CK-1, Day 3) was 32 µg/mL (≈ 115 µM). For the same compound, the IC50 ([7]; CK1, 120 h, CK-1, Day 5) was 1.1 µg/mL (≈ 3.94 µM), the IC50 ([7]; CK1, 168 h, CK-1, Day 7) was 0.5 µg/mL (≈ 1.79 µM) and the IC50 ([7]; CK1, 240 h, CK-1, Day 10) was 1.2 µg/mL (≈ 4.3 µM).

In the case of `Nc1nc2c(ncn2COCCO)c(=O)[nH]1` [acyclovir, reference compound], the “growth inhibition / anti-proliferative activity (in words)” value [2] is reported as “With the exception of acyclovir, growth inhibition was observed”.

From patent publication US20020123480A1, “Methods and compositions utilizing 2'-5' oligoadenylates in the treatment of disorders of cell proliferation” (priority 2000, published 2002)
